Measured values: patent publication US10800783B2, “CDK2/4/6 inhibitors” (Pfizer Inc., priority 2016, dated 2020)
Where two headings read alike, the source gives them in different places.

Key:
CDK6/Cyclin D1 [1] = target: T1, CDK6/Cyclin D1 (Homo sapiens (Human), UniProt Q00534); assay: biochemical
CDK6/Cyclin D1 [2] = target: T1, CDK6/Cyclin D1; conditions: read-out: CDK6_Ki; non-phosphorylated CDK6/Cyclin D1, 2 mM ATP
CDK2/Cyclin E1 = CDK2/Cyclin E1 (Homo sapiens (Human), UniProt P24941); assay: biochemical
Method: The assay was initiated with the addition of ATP, following a fifteen minutes pre-incubation of enzyme and inhibitor at room temperature in the reaction mixture. The reaction was stopped after 45 minutes at room temperature by the addition of 50 μL of 80 mM EDTA, pH 7.5.

[3] = tested on: OVCAR3 mouse tumor xenograft; assay: Ovcar3 tumor model (mouse xenograft); type: in vivo; conditions: NSG mice; 10 mpk PO QD, 50 mpk PO QD and 50 mpk PO BID, 14 days
Method: Ovcar3 tumor cell line, purchased from ATCC (ATCC HTB-161™) was cultured in RPMI1640 (1×) media (Gibco™ cat #11875-093) with 10% FBS (Gibco™ cat #26140-079). To establish a Ovcar3 xenograft model, 5×10^6 cells per mouse was implanted subcutaneously into right hind flank NSG mice (#5557-NOD.cg-PrkdcJackson Lab). Cells were suspended in 50% matrigel (Cultrex Basement Membrane Extract (BME), Trevigen's Basement Membrane Matrix) and 50% RPMI1640 (1×) media (Gibco™ cat #11875-093) serum free media prior to implantation.
Animals were randomized 39 days after cells implantation with each group consisted of 4 mice. Treatment began when tumors reached 100 mm^3-190 mm^3 in size. Test compounds were prepared in 40% Captisol and dosed PO at 10 and 50 mg/kg QD or at 50 mg/kg BID as a suspension for 14 days. Animals were taken down at designated time. Mice receiving no drugs were given vehicle QD or BID for 14 days. Tumor volumes were measured once prior to randomization with an electric caliper, with tumor volumes were calculated using Length×Width×Width/2 formulation. Tumor volumes were measured twice a week with an electric caliper, with tumor volumes calculated using Length×Width×Width/2 formula. Animal weights were recorded twice weekly.

[4] = tested on: HCC1806 mouse tumor xenograft; assay: HCC1806 tumor model (mouse xenograft); type: in vivo; conditions: NU/NU female mice; 30, 50 and 75 mpk PO BID, 14 days
Method: • Source: HCC1806 (# CRL 2335, ATCC, Manassas, Va.)
The HCC1806 tumor cell line was cultured in RPMI1640 media supplemented with 10% Fetal Bovine Serum (FBS). To establish a HCC1806 xenograft model, 5×10^6 cells per mouse were implanted subcutaneously into right hind flank NU/NU female mice. Cells were suspended in 50% Cultrex Basement Membrane Extract and 50% RPMI 1640 media serum free media prior to implantation.
Animals were randomized 7 days after cells implantation with each group consisting of 13 mice. Treatment began when tumors reached 100 mm^3 to 170 mm^3 in size on Day 7. Test compounds were prepared in 0.1% Tween, 0.5% Methyl cellulose in water and dosed PO at 30, 50, and 75 mg/kg as a suspension BID for 14 days. Mice receiving no drugs were given vehicle BID for 14 days. Tumor volumes were measured twice a week with an electric caliper, with tumor volumes calculated using Length×Width×Width/2 formula. Animal weights were recorded twice weekly.

T1 sequence (Q00534 whole entry): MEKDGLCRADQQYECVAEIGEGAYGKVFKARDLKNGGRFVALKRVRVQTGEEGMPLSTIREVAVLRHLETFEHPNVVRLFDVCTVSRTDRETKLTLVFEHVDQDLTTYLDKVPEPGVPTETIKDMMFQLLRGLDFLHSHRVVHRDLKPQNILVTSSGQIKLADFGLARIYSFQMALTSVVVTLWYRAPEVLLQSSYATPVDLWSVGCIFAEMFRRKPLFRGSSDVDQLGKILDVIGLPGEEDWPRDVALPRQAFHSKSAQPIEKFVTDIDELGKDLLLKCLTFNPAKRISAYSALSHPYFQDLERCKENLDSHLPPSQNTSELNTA
T1 sequence (P24385 whole entry partner): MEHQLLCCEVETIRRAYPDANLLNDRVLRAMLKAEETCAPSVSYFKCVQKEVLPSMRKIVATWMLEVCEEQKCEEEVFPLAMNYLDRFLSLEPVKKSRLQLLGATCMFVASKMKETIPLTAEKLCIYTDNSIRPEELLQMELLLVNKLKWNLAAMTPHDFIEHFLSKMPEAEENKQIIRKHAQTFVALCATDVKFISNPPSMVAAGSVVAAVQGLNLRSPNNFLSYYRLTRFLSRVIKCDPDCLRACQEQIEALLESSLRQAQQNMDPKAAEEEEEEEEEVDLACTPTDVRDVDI

SMILES | Ki (CDK6/Cyclin D1 [1]) [nM] | further results
C[C@@]1(O)CCC[C@H]1n1c(=O)ccc2cnc(NC3CCN(S(=O)(=O)NC[C@H]4CCCO4)CC3)nc21 (stereo in doubt) [Example 64] | 4.69 | –
C[C@@]1(O)CCC[C@H]1n1c(=O)ccc2cnc(NC3CCN(S(=O)(=O)C4CCS(=O)(=O)C4)CC3)nc21 (single isomer, unassigned) [Example 71] | – | Ki (CDK6/Cyclin D1 [2]): 1.55 nM
CNS(=O)(=O)N1CCC(Nc2ncc3ccc(=O)n([C@@H]4CCC[C@H]4O)c3n2)CC1 [Example 55] | – | Ki (CDK2/Cyclin E1): 4.66 nM
C[C@@]1(O)CCC[C@H]1n1c(=O)ccc2cnc(NC3CCN(S(=O)(=O)NC[C@@H]4CCCO4)CC3)nc21 (stereo in doubt) [Example 62] | 5.69 | –
Cc1cc2cnc(NC3CCN(S(=O)(=O)NC[C@H]4CCCO4)CC3)nc2n([C@H]2CCC[C@]2(C)O)c1=O (stereo in doubt) [Example 103] | 19.6 | –
C[C@]1(O)CCC[C@@H]1n1c(=O)ccc2cnc(NC3CCN(S(=O)(=O)NC[C@@H]4CCCO4)CC3)nc21 (stereo in doubt) [Example 63] | 16.5 | –
Cc1cc2cnc(NC3CCN(S(=O)(=O)NC[C@@H]4CCCO4)CC3)nc2n([C@H]2CCC[C@]2(C)O)c1=O (stereo in doubt) [Example 101] | 23.5 | –
Cc1cc2cnc(NC3CCN(S(=O)(=O)NC[C@@H]4CCCO4)CC3)nc2n([C@@H]2CCC[C@@]2(C)O)c1=O (stereo in doubt) [Example 100] | 1.07 | –
Cc1cc2cnc(NC3CCN(S(=O)(=O)NC[C@H]4CCCO4)CC3)nc2n([C@@H]2CCC[C@@]2(C)O)c1=O (stereo in doubt) [Example 102] | 0.8 | –
C[C@]1(O)CCC[C@@H]1n1c(=O)ccc2cnc(NC3CCN(S(=O)(=O)NC[C@H]4CCCO4)CC3)nc21 (stereo in doubt) [Example 65] | 25.6 | –
C[C@@]1(O)CCC[C@H]1n1c(=O)ccc2cnc(NC3CCN(S(C)(=O)=O)CC3)nc21 [Example 2, 8-[(1R,2R)-2-hydroxy-2-methylcyclopentyl]-2-{[1-(methylsulfonyl)piperidin-4-yl]amino}pyrido[2,3-d]pyrimidin-7(8H)-one] | – | inhibition of tumor growth (mm^3) [3]: dose dependent inhibition of tumor growth; inhibition of tumor growth (mm^3) [4]: dose dependent inhibition of tumor growth
